Experimental data as given in the supplement of paper PMC8612539.
Converted amounts (≈) assume the structure as drawn.

Key:
Mannheimia haemolytica = test: minimum inhibitory concentration (MIC)
Description: (§1)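 Broth microdilution MIC (Sensititre BOPO7F bovine plate, CLSI methods) of 19 antimicrobials against field isolates of P. multocida, M. haemolytica, H. somni (deep nasopharyngeal swabs) and E. coli, Enterococcus spp. (rectal swabs) from weaned dairy heifers. Incubation 16-24 h at 35 C. MIC is the lowest concentration preventing visible growth. Values with <= or > lie at the tested range limits. Trimethoprim-sulfamethoxazole is given as the trimethoprim component of a 1:19 mixture.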

Enterococcus spp. = test: minimum inhibitory concentration (MIC)
Description: as §1

CNC(C)C1CCC(N)C(OC2C(N)CC(N)C(OC3OCC(C)(O)C(NC)C3O)C2O)O1 (centres undefined) [Gentamicin]
minimum inhibitory concentration [µg/mL]
Details	Enterococcus spp.	Mannheimia haemolytica
isolate (source animal id): 2	8 (≈ 16.8 µM)	–
isolate (source animal id): 8	–	2 (≈ 4.19 µM)
isolate (source animal id): 13	–	2 (≈ 4.19 µM)
isolate (source animal id): 18	–	2 (≈ 4.19 µM)
isolate (source animal id): 21	–	2 (≈ 4.19 µM)
isolate (source animal id): 25	–	4 (≈ 8.38 µM)
isolate (source animal id): 27	–	4 (≈ 8.38 µM)
isolate (source animal id): 28	–	2 (≈ 4.19 µM)
isolate (source animal id): 30	–	2 (≈ 4.19 µM)
isolate (source animal id): 31	–	4 (≈ 8.38 µM)
isolate (source animal id): 32	–	4 (≈ 8.38 µM)
isolate (source animal id): 34	–	4 (≈ 8.38 µM)
isolate (source animal id): 35	16 (≈ 33.5 µM)	–
isolate (source animal id): 36	–	4 (≈ 8.38 µM)
isolate (source animal id): 37	–	4 (≈ 8.38 µM)
isolate (source animal id): 40	–	4 (≈ 8.38 µM)
isolate (source animal id): 41	–	2 (≈ 4.19 µM)
isolate (source animal id): 42	8 (≈ 16.8 µM)	–
isolate (source animal id): 43	–	4 (≈ 8.38 µM)
isolate (source animal id): 44	16 (≈ 33.5 µM)	–
isolate (source animal id): 46	–	4 (≈ 8.38 µM)
isolate (source animal id): 49	–	4 (≈ 8.38 µM)
isolate (source animal id): 50	–	4 (≈ 8.38 µM)
isolate (source animal id): 51	–	2 (≈ 4.19 µM)
isolate (source animal id): 52	–	2 (≈ 4.19 µM)
isolate (source animal id): 53	–	4 (≈ 8.38 µM)
isolate (source animal id): 55	–	2 (≈ 4.19 µM)
isolate (source animal id): 56	–	2 (≈ 4.19 µM)
isolate (source animal id): 57	–	16 (≈ 33.5 µM)
isolate (source animal id): 79	16 (≈ 33.5 µM)	–
isolate (source animal id): 88	4 (≈ 8.38 µM)	–
isolate (source animal id): 91	4 (≈ 8.38 µM)	–
isolate (source animal id): 92	2 (≈ 4.19 µM)	–
isolate (source animal id): 100	–	4 (≈ 8.38 µM)
isolate (source animal id): 103	–	4 (≈ 8.38 µM)
isolate (source animal id): 107	–	4 (≈ 8.38 µM)
isolate (source animal id): 108	–	4 (≈ 8.38 µM)
isolate (source animal id): 111	4 (≈ 8.38 µM)	–
isolate (source animal id): 112	–	2 (≈ 4.19 µM)
isolate (source animal id): 113	–	16 (≈ 33.5 µM)
isolate (source animal id): 121	–	4 (≈ 8.38 µM)
isolate (source animal id): 122	16 (≈ 33.5 µM)	4 (≈ 8.38 µM)
isolate (source animal id): 123	8 (≈ 16.8 µM)	16 (≈ 33.5 µM)
isolate (source animal id): 126	–	4 (≈ 8.38 µM)
isolate (source animal id): 133	16 (≈ 33.5 µM)	2 (≈ 4.19 µM)
isolate (source animal id): 135	–	> 16
isolate (source animal id): 138	–	4 (≈ 8.38 µM)
isolate (source animal id): 141	–	16 (≈ 33.5 µM)
isolate (source animal id): 142	–	4 (≈ 8.38 µM)
isolate (source animal id): 145	–	4 (≈ 8.38 µM)
isolate (source animal id): 149	–	2 (≈ 4.19 µM)
isolate (source animal id): 151	–	2 (≈ 4.19 µM)
isolate (source animal id): 152	–	2 (≈ 4.19 µM)
isolate (source animal id): 154	–	2 (≈ 4.19 µM)
isolate (source animal id): 158	16 (≈ 33.5 µM)	–
isolate (source animal id): 159	–	4 (≈ 8.38 µM)
isolate (source animal id): 162	–	4 (≈ 8.38 µM)
isolate (source animal id): 168	8 (≈ 16.8 µM)	–
isolate (source animal id): 169	8 (≈ 16.8 µM)	–
isolate (source animal id): 170	–	4 (≈ 8.38 µM)
isolate (source animal id): 171	4 (≈ 8.38 µM)	2 (≈ 4.19 µM)
isolate (source animal id): 172	–	4 (≈ 8.38 µM)
isolate (source animal id): 173	–	4 (≈ 8.38 µM)
isolate (source animal id): 175	8 (≈ 16.8 µM)	–
isolate (source animal id): 177	8 (≈ 16.8 µM)	–
isolate (source animal id): 179	–	4 (≈ 8.38 µM)
isolate (source animal id): 180	–	2 (≈ 4.19 µM)
isolate (source animal id): 181	8 (≈ 16.8 µM)	–
isolate (source animal id): 182	8 (≈ 16.8 µM)	–
isolate (source animal id): 183	8 (≈ 16.8 µM)	2 (≈ 4.19 µM)
isolate (source animal id): 186	–	4 (≈ 8.38 µM)
isolate (source animal id): 187	8 (≈ 16.8 µM)	2 (≈ 4.19 µM)
isolate (source animal id): 188	–	2 (≈ 4.19 µM)
isolate (source animal id): 190	8 (≈ 16.8 µM)	2 (≈ 4.19 µM)
isolate (source animal id): 191	–	4 (≈ 8.38 µM)
isolate (source animal id): 192	–	2 (≈ 4.19 µM)
isolate (source animal id): 194	4 (≈ 8.38 µM)	–
isolate (source animal id): 195	8 (≈ 16.8 µM)	–
isolate (source animal id): 197	8 (≈ 16.8 µM)	–
isolate (source animal id): 201	–	2 (≈ 4.19 µM)
isolate (source animal id): 202	–	4 (≈ 8.38 µM)
isolate (source animal id): 209	–	4 (≈ 8.38 µM)
isolate (source animal id): 211	8 (≈ 16.8 µM)	2 (≈ 4.19 µM)
isolate (source animal id): 214	16 (≈ 33.5 µM)	–
isolate (source animal id): 220	–	4 (≈ 8.38 µM)
isolate (source animal id): 221	–	4 (≈ 8.38 µM)
isolate (source animal id): 222	8 (≈ 16.8 µM)	–
isolate (source animal id): 223	8 (≈ 16.8 µM)	4 (≈ 8.38 µM)
isolate (source animal id): 228	8 (≈ 16.8 µM)	–
isolate (source animal id): 230	8 (≈ 16.8 µM)	–
isolate (source animal id): 233	–	4 (≈ 8.38 µM)
isolate (source animal id): 235	4 (≈ 8.38 µM)	–
isolate (source animal id): 236	4 (≈ 8.38 µM)	–
isolate (source animal id): 237	–	4 (≈ 8.38 µM)
isolate (source animal id): 239	4 (≈ 8.38 µM)	–
isolate (source animal id): 241	4 (≈ 8.38 µM)	4 (≈ 8.38 µM)
isolate (source animal id): 244	4 (≈ 8.38 µM)	–
isolate (source animal id): 246	8 (≈ 16.8 µM)	–
isolate (source animal id): 247	4 (≈ 8.38 µM)	–
isolate (source animal id): 250	8 (≈ 16.8 µM)	–
isolate (source animal id): 252	8 (≈ 16.8 µM)	4 (≈ 8.38 µM)
isolate (source animal id): 253	–	4 (≈ 8.38 µM)
isolate (source animal id): 259	–	2 (≈ 4.19 µM)
isolate (source animal id): 260	–	4 (≈ 8.38 µM)
isolate (source animal id): 262	–	2 (≈ 4.19 µM)
isolate (source animal id): 268	4 (≈ 8.38 µM)	–
isolate (source animal id): 282	8 (≈ 16.8 µM)	2 (≈ 4.19 µM)
isolate (source animal id): 285	16 (≈ 33.5 µM)	–
isolate (source animal id): 287	–	4 (≈ 8.38 µM)
isolate (source animal id): 288	–	2 (≈ 4.19 µM)
isolate (source animal id): 289	4 (≈ 8.38 µM)	–
isolate (source animal id): 290	4 (≈ 8.38 µM)	–
isolate (source animal id): 291	–	2 (≈ 4.19 µM)
isolate (source animal id): 293	–	4 (≈ 8.38 µM)
isolate (source animal id): 296	8 (≈ 16.8 µM)	–
isolate (source animal id): 298	4 (≈ 8.38 µM)	2 (≈ 4.19 µM)
isolate (source animal id): 299	–	2 (≈ 4.19 µM)
isolate (source animal id): 300	–	2 (≈ 4.19 µM)
isolate (source animal id): 301	4 (≈ 8.38 µM)	–
isolate (source animal id): 302	–	2 (≈ 4.19 µM)
isolate (source animal id): 304	–	2 (≈ 4.19 µM)
isolate (source animal id): 306	–	2 (≈ 4.19 µM)
isolate (source animal id): 308	–	2 (≈ 4.19 µM)
isolate (source animal id): 309	–	2 (≈ 4.19 µM)
isolate (source animal id): 310	4 (≈ 8.38 µM)	–
isolate (source animal id): 313	–	4 (≈ 8.38 µM)
isolate (source animal id): 318	–	2 (≈ 4.19 µM)
isolate (source animal id): 320	8 (≈ 16.8 µM)	2 (≈ 4.19 µM)
isolate (source animal id): 321	–	4 (≈ 8.38 µM)
isolate (source animal id): 323	–	2 (≈ 4.19 µM)
isolate (source animal id): 324	–	4 (≈ 8.38 µM)
isolate (source animal id): 326	–	4 (≈ 8.38 µM)
isolate (source animal id): 328	–	4 (≈ 8.38 µM)
isolate (source animal id): 329	–	4 (≈ 8.38 µM)
isolate (source animal id): 331	8 (≈ 16.8 µM)	–
isolate (source animal id): 333	4 (≈ 8.38 µM)	4 (≈ 8.38 µM)
isolate (source animal id): 335	–	4 (≈ 8.38 µM)
isolate (source animal id): 338	–	4 (≈ 8.38 µM)
isolate (source animal id): 341	16 (≈ 33.5 µM)	–
